Kd data for four molecules are collected here from paper PMC7961048, “Hierarchized phosphotarget binding by the seven human 14-3-3 isoforms” (Nature Communications, 2021).

One test concerns the target T1, 14-3-3η (Homo sapiens, UniProt Q04917).
T1 construct: cDNAs encoding other full-length 14-3-3 isoforms β, τ, η, and σ were obtained as codon-optimized; made in house; host or cells: E. coli BL21(DE3)
T1 sequence (Q04917 1-246): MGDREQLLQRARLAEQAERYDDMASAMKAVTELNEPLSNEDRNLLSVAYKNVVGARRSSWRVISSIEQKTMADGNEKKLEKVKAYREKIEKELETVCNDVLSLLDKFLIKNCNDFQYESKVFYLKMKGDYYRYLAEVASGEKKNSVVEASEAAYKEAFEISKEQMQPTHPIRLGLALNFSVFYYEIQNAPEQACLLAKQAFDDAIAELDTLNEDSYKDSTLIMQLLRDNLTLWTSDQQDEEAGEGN
The test can be described thus: biochemical. The test is classed as binding.

The target in another test is T2, 14-3-3γ (Homo sapiens, UniProt P61981).
T2 construct: full-length human 14-3-3 constructs with an N-terminal MBP fusion were used; made in house; host or cells: E. coli BL21(DE3)
T2 sequence (P61981 1-247): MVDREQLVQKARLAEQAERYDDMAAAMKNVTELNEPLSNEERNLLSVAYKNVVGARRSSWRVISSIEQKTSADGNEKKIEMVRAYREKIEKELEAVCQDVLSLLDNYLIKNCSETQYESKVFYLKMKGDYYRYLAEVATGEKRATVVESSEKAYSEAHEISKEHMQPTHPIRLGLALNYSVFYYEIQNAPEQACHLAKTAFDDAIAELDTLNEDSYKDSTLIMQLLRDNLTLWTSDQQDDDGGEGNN
The test can be described thus: biochemical. The format is binding. Here is the method:
FP was measured with a PHERAstar (BMG Labtech, Offenburg, Germany) microplate reader by using 485 ± 20 and 528 ± 20 nm band-pass filters (for excitation and emission, respectively). In direct FP measurements, a dilution series of the 14-3-3 protein was prepared in 96-well plates (96-well skirted PCR plate, 4ti-0740, 4titude, Wotton, UK) in a 20 mM HEPES pH 7.5 buffer containing 150 mM NaCl, 0.5 mM TCEP, 0.01% Tween 20, 50 nM fluorescently labeled fpB6 peptide, and 100 μM FSC, if indicated. The volume of the dilution series was 40 μl, which was later divided into three technical replicates of 10 μl upon transferring to 384-well micro-plates (low binding microplate, 384 well, E18063G5, Greiner Bio-One, Kremsmünster, Austria). In total, polarization of the probe was measured at eight different protein concentrations (whereas one contained no protein and corresponded to the free peptide). In competitive FP measurements, the same buffer was supplemented with the protein to achieve a complex formation of 60–80%, based on the direct titration. Then, this mixture was used for creating a dilution series of the unlabeled competitor (i.e., the studied peptides) and the measurement was carried out identically as in the direct experiment.
All FP experiments were done in triplicates. Analysis of FP experiments were carried out using ProFit, an in-house developed, Python-based fitting program. […]

SMILES strings stand for the structures. Starred links: 1 amine or outer side, 2 acyl side, 3 side chain; linkers in the order of their positions; H or OH if unused. Non-standard residues stand in square brackets, D forms with d. Residues, ends and D or L forms follow the SMILES beside them. *: point of attachment. X1 = O=C(CCCC[C@@H]1SC[C@@H]2NC(=O)N[C@@H]21)NCCCOCCOCCOCCCN*; pT = C[C@@H](OP(=O)(O)O)[C@H](N)C(=O)O; Suc = O=C(CCC(=O)[*:2])[*:1]

As to `CC(C)C[C@H](NC(=O)[C@H](C)NC(=O)[C@@H](NC(=O)[C@H](CCC(=O)O)NC(=O)[C@H](CCCNC(=N)N)NC(=O)[C@H](CCCNC(=N)N)NC(=O)[C@H](CCCNC(=N)N)NC(=O)[C@H](CO)NC(=O)[C@H](CCCNC(=N)N)NC(=O)[C@H](CO)NC(=O)CCC(=O)NCCCOCCOCCOCCCNC(=O)CCCC[C@@H]1SC[C@@H]2NC(=O)N[C@@H]21)[C@@H](C)OP(=O)(O)O)C(=O)O` [pHPV33E6] ({X1-Suc}-SRSRRRE[pT]AL-OH), the Kd – broadly, the free concentration of one partner at which half of the binding sites on the other are occupied at equilibrium, for simple one-to-one binding – at 14-3-3η was determined as 1.98 µM; on 14-3-3γ, 2.2 ± 0.3 µM. Regarding `CC(C)[C@H](NC(=O)[C@H](C)NC(=O)[C@@H](NC(=O)[C@H](CCC(=O)O)NC(=O)[C@H](CCCNC(=N)N)NC(=O)[C@H](CCCNC(=N)N)NC(=O)[C@@H](NC(=O)[C@@H]1CCCN1C(=O)[C@H](CCCCN)NC(=O)[C@H](CO)NC(=O)CCC(=O)NCCCOCCOCCOCCCNC(=O)CCCC[C@@H]1SC[C@@H]2NC(=O)N[C@@H]21)[C@@H](C)O)[C@@H](C)OP(=O)(O)O)C(=O)O` [pHPV35E6E-1A] ({X1-Suc}-SKPTRRE[pT]AV-OH), the Kd on 14-3-3η is 12.4 µM. Same read-out and setting: to `CC(C)[C@H](NC(=O)[C@H](CCC(=O)O)NC(=O)[C@@H](NC(=O)[C@H](CCC(=O)O)NC(=O)[C@H](CCCNC(=N)N)NC(=O)[C@H](CCCNC(=N)N)NC(=O)[C@H](CCCNC(=N)N)NC(=O)[C@@H]1CCCN1C(=O)[C@H](CCCCN)NC(=O)[C@H](CO)NC(=O)CCC(=O)NCCCOCCOCCOCCCNC(=O)CCCC[C@@H]1SC[C@@H]2NC(=O)N[C@@H]21)[C@@H](C)OP(=O)(O)O)C(=O)O` [pHPV35E6T-6R] ({X1-Suc}-SKPRRRE[pT]EV-OH) belongs 85 ± 20.6 µM.

With `CC(C)[C@H](NC(=O)[C@H](CCC(=O)O)NC(=O)[C@@H](NC(=O)[C@H](CCC(=O)O)NC(=O)[C@H](CCCNC(=N)N)NC(=O)[C@H](CCCNC(=N)N)NC(=O)[C@@H](NC(=O)[C@@H]1CCCN1C(=O)[C@H](CCCCN)NC(=O)[C@H](CO)NC(=O)CCC(=O)NCCCOCCOCCOCCCNC(=O)CCCC[C@@H]1SC[C@@H]2NC(=O)N[C@@H]21)[C@@H](C)O)[C@@H](C)OP(=O)(O)O)C(=O)O` [pHPV35E6] ({X1-Suc}-SKPTRRE[pT]EV-OH), binding on 14-3-3η was characterised by a dissociation constant (Kd) of 163 ± 19 µM.
